Some test systems named below: MDA-MB-435; UACC-62 melanoma; IGROV1 ovarian; NCI-H522 lung; A549 NSCLC; SNB-75 CNS; OVCAR-5 ovarian; EKVX NSCLC; ACHN renal; MDA-N; MALME-3M melanoma; SW-620 colon; MOLT-4 leukemia; RPMI-8226 leukemia.
Holding throughout (assay): NCI tumour cell line growth inhibition, 48 h

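A five-concentration, 48-hour dose response in 96-well plates underlies each endpoint, interpolated linearly between surrounding concentrations. TGI: concentration producing complete growth inhibition.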 Some results are limits rather than exact numbers.

Turning to `O=C(N/N=C/C=C/c1ccc([N+](=O)[O-])o1)c1ccc(C(=O)N/N=C/C=C/c2ccc([N+](=O)[O-])o2)cc1`, the TGI with MDA-MB-435 is above 73.8 µM; with UACC-62 melanoma, above 100 µM; with IGROV1 ovarian it was above 100 µM; with NCI-H522 lung, 89 µM; with A549 NSCLC, above 100 µM; with SNB-75 CNS, above 100 µM. The TGI with OVCAR-5 ovarian is above 100 µM; in the test on EKVX NSCLC it was above 100 µM; in the test with ACHN renal, above 59.1 µM; in the test with MDA-N it was above 84.8 µM; with MALME-3M melanoma it was 35.2 µM; in the test with SW-620 colon it was 98.5 µM. Moreover, the values for the TGI in the test on MOLT-4 leukemia and with RPMI-8226 leukemia were above 43.6 µM and above 32.9 µM, respectively.

Consider `CCOC(=O)C(Cc1ccc(N(CCCl)CCCl)cc1)NC(=O)CCCN1C(=O)CN=C(c2ccccc2)c2cc(Cl)ccc21` (stereo not given), for which the TGI in the test on MDA-MB-435 is above 59.5 µM; in the test on UACC-62 melanoma, 5.95 µM; in the test with IGROV1 ovarian it was 16.9 µM; in the test on NCI-H522 lung it was 13.2 µM; in the test with A549 NSCLC, above 100 µM; in the test with SNB-75 CNS, 51.3 µM. In addition, the TGI is above 100 µM with OVCAR-5 ovarian; above 100 µM in the test with EKVX NSCLC; 22.5 µM in the test on ACHN renal; 19.1 µM in the test on MDA-N; 7.71 µM in the test with MALME-3M melanoma; above 62.3 µM in the test with SW-620 colon. Besides, the results for the TGI with MOLT-4 leukemia and in the test with RPMI-8226 leukemia were above 100 µM and 20.7 µM, respectively.

On to `O=C1C(S(=O)(=O)c2ccccc2)=C(CS(=O)(=O)c2ccccc2)[C@@H](OCc2ccccc2)[C@@H]1OCc1ccccc1`, for which the TGI in the test with MDA-MB-435 was 92.7 µM; in the test with UACC-62 melanoma, 40 µM; in the test with IGROV1 ovarian it was 33.8 µM; with NCI-H522 lung it was 35.9 µM; in the test with A549 NSCLC, above 100 µM; with SNB-75 CNS, above 100 µM. Besides, the TGI in the test on OVCAR-5 ovarian was 75.4 µM; in the test with EKVX NSCLC it was above 100 µM; in the test on ACHN renal it was above 100 µM; with MDA-N, 88.7 µM; in the test with MALME-3M melanoma, 36.1 µM; in the test with SW-620 colon, 36.4 µM. For the same compound, the TGI amounted to 46.7 µM in the test with MOLT-4 leukemia and 36.1 µM with RPMI-8226 leukemia.

On to `Cc1ccc(N2C(N)=C(C#N)C(C#N)(C#N)C2c2ccccc2)cc1` (stereo not given), for which the TGI in the test on MDA-MB-435 came out at 14.1 µM; in the test on UACC-62 melanoma, 26.7 µM; in the test with IGROV1 ovarian, 20.2 µM; with NCI-H522 lung, 21.5 µM; in the test with A549 NSCLC it was 38.2 µM; with SNB-75 CNS, 28 µM. The TGI in the test on OVCAR-5 ovarian is 32.4 µM; with EKVX NSCLC, 46 µM; in the test on ACHN renal it was 28.2 µM; with MDA-N, 12 µM; in the test on MALME-3M melanoma it was 27.8 µM; in the test with SW-620 colon, 15.2 µM. Besides, the TGI in the test with MOLT-4 leukemia was found to be 8.27 µM; with RPMI-8226 leukemia, 32.1 µM.

For `Cc1cccc2c1c(=O)c1c(O)cc(O)cc1n2C`, the TGI with MDA-MB-435, in the test on UACC-62 melanoma, with IGROV1 ovarian, in the test with NCI-H522 lung, in the test with A549 NSCLC and with SNB-75 CNS was above 100 µM throughout. For the same compound, the TGI in the test on OVCAR-5 ovarian, in the test on EKVX NSCLC, in the test on ACHN renal, in the test on MDA-N, with MALME-3M melanoma and in the test on SW-620 colon was above 100 µM in each case. Also, the TGI in the test with MOLT-4 leukemia and in the test on RPMI-8226 leukemia was above 100 µM in each case.

`S=C(N1CCN(c2ccccc2)CC1)N1CCN(c2ccccc2)CC1`: the TGI in the test on MDA-MB-435, in the test on UACC-62 melanoma, with IGROV1 ovarian, with NCI-H522 lung, in the test with A549 NSCLC and with SNB-75 CNS was above 100 µM throughout. For the same compound, the TGI in the test on OVCAR-5 ovarian, with EKVX NSCLC, in the test with ACHN renal, with MDA-N, in the test with MALME-3M melanoma and in the test with SW-620 colon was above 100 µM in each case. For the same compound, the TGI in the test on MOLT-4 leukemia and in the test with RPMI-8226 leukemia was above 100 µM in each case.

Regarding `CCCNC(=O)N1CC(CN2CCN(c3ccccc3)CC2)O/C1=N/C(=O)Nc1ccccc1` (stereo not given), the TGI in the test with MDA-MB-435, in the test on UACC-62 melanoma, with IGROV1 ovarian, in the test on NCI-H522 lung, in the test on A549 NSCLC and in the test on SNB-75 CNS was above 100 µM each time. The TGI in the test on OVCAR-5 ovarian, with EKVX NSCLC, with ACHN renal, in the test on MDA-N, in the test on MALME-3M melanoma and in the test on SW-620 colon was above 100 µM in each case. Further, the TGI in the test on MOLT-4 leukemia and in the test on RPMI-8226 leukemia was above 100 µM each time.

Take `N#Cc1c(N2CCN(c3ccc([N+](=O)[O-])cc3)CC2)[n+](=O)c2ccccc2n1[O-]`: the TGI with MDA-MB-435, in the test on UACC-62 melanoma, with IGROV1 ovarian, in the test on NCI-H522 lung, with A549 NSCLC and in the test with SNB-75 CNS was above 100 µM in each case. For the same compound, the TGI with OVCAR-5 ovarian, in the test on EKVX NSCLC, in the test on ACHN renal, with MDA-N, in the test on MALME-3M melanoma and with SW-620 colon was above 100 µM throughout. The TGI in the test on MOLT-4 leukemia and with RPMI-8226 leukemia was above 100 µM each time.

Regarding `CCOC(=O)c1cc(C2CCN(Cc3ccccc3)C2=S)c(C(=O)C=[N+]=[N-])[nH]1` (stereo not given), the TGI was above 100 µM in the test with MDA-MB-435; 50.7 µM with UACC-62 melanoma; above 100 µM in the test with IGROV1 ovarian; 46.7 µM with NCI-H522 lung; above 100 µM with A549 NSCLC; 91.6 µM in the test on SNB-75 CNS. Further, the TGI is above 100 µM in the test with OVCAR-5 ovarian; 89.6 µM with EKVX NSCLC; above 100 µM with ACHN renal; 49.4 µM in the test on MDA-N; 66.3 µM in the test with MALME-3M melanoma; above 100 µM in the test on SW-620 colon. Moreover, the TGI in the test on MOLT-4 leukemia and in the test with RPMI-8226 leukemia was above 100 µM each time.

Consider `CCCCCCCCOC(=O)c1cc([N+](=O)[O-])c(Sc2ncnc3nc[nH]c23)c([N+](=O)[O-])c1`, for which the TGI in the test with MDA-MB-435 was above 38.4 µM; in the test with UACC-62 melanoma, 17 µM; with IGROV1 ovarian, 16 µM; in the test with NCI-H522 lung, 2.41 µM; in the test on A549 NSCLC it was 27.3 µM; with SNB-75 CNS it was 9.27 µM. Further, the TGI was 13.8 µM with OVCAR-5 ovarian; 26.8 µM in the test on EKVX NSCLC; 10.2 µM in the test with ACHN renal; 22.5 µM in the test on MDA-N; 19.9 µM in the test with MALME-3M melanoma; 8.31 µM in the test on SW-620 colon. Also, the TGI amounted to 16.2 µM with MOLT-4 leukemia and 8.54 µM with RPMI-8226 leukemia.

Turning to `O=c1oc2ccc3ccccc3c2cc1-c1nc2ccc([N+](=O)[O-])cc2o1`, the TGI with MDA-MB-435 is above 100 µM; in the test with UACC-62 melanoma, above 100 µM; in the test on IGROV1 ovarian it was above 100 µM; with NCI-H522 lung, above 100 µM; with A549 NSCLC, above 79.1 µM; with SNB-75 CNS it was above 100 µM. In addition, the TGI was above 100 µM in the test with OVCAR-5 ovarian; above 100 µM with EKVX NSCLC; above 24.2 µM with ACHN renal; above 100 µM in the test with MDA-N; above 100 µM with MALME-3M melanoma; above 100 µM in the test on SW-620 colon. Moreover, the TGI in the test with MOLT-4 leukemia and in the test on RPMI-8226 leukemia was above 100 µM throughout.

Consider `N#Cc1c(O)c2ccccc2[nH]c1=O`, for which the TGI in the test on MDA-MB-435, in the test on UACC-62 melanoma, with IGROV1 ovarian, in the test on NCI-H522 lung, with A549 NSCLC and with SNB-75 CNS was above 100 µM each time. The TGI in the test with OVCAR-5 ovarian, with EKVX NSCLC, in the test on ACHN renal, in the test with MDA-N, in the test on MALME-3M melanoma and in the test with SW-620 colon was above 100 µM each time. The TGI in the test on MOLT-4 leukemia and in the test on RPMI-8226 leukemia was above 100 µM in each case.

Consider `NC(Cc1ccc(B(O)O)cc1)C(=O)NC(CO)CO` (stereo not given), for which the TGI with MDA-MB-435, in the test with UACC-62 melanoma, in the test with IGROV1 ovarian, in the test with NCI-H522 lung, with A549 NSCLC and in the test with SNB-75 CNS was above 100 µM in each case. The TGI in the test on OVCAR-5 ovarian, in the test on EKVX NSCLC, in the test with ACHN renal, with MDA-N, in the test with MALME-3M melanoma and with SW-620 colon was above 100 µM each time. The TGI in the test on MOLT-4 leukemia and in the test with RPMI-8226 leukemia was above 100 µM each time.

For `Clc1c2ccccc2nc2c1[nH]c1ccccc12`, the TGI in the test on MDA-MB-435, with UACC-62 melanoma, in the test with IGROV1 ovarian, in the test with NCI-H522 lung, in the test with A549 NSCLC and in the test on SNB-75 CNS was above 100 µM each time. The TGI in the test with OVCAR-5 ovarian is above 100 µM; with EKVX NSCLC, above 100 µM; in the test on ACHN renal, above 100 µM; with MDA-N, 16.9 µM; in the test with MALME-3M melanoma it was above 100 µM; in the test with SW-620 colon, above 100 µM. For the same compound, the TGI was 9.61 µM in the test on MOLT-4 leukemia and 68.2 µM with RPMI-8226 leukemia.

Consider `O=C1O/C(=C\c2ccc(O)cc2)C(c2ccc(O)c(Cl)c2)=C1Cl`, for which the TGI with MDA-MB-435 is 81.7 µM; in the test with UACC-62 melanoma, above 100 µM; in the test on IGROV1 ovarian it was above 100 µM; with NCI-H522 lung it was 53.3 µM; in the test with A549 NSCLC, above 100 µM; in the test with SNB-75 CNS it was above 100 µM. The TGI is above 100 µM in the test on OVCAR-5 ovarian; above 100 µM with EKVX NSCLC; above 100 µM in the test with ACHN renal; 68 µM in the test with MDA-N; 74.5 µM in the test on MALME-3M melanoma; above 100 µM in the test with SW-620 colon. The TGI with MOLT-4 leukemia and in the test with RPMI-8226 leukemia was above 100 µM throughout.

For the origin of these results see PubChem BioAssay (NCI).
